From US12145917B2, “Crystalline forms of a compound for treating or preventing gout or hyperuricemia” (Arthrosi Therapeutics, Inc., priority 2019, dated 2024)

Experiments:
[1] = Dynamic vapor sorption (DVS); assay type: physicochemical; settings: for Post-GVS analysis by XRPD (change of form): after DVS cycle 0-90-0% RH; for Moisture uptake (DVS): between 0-90% RH
Method: DVS studies were performed using a DVS Intrinsic (SMS, UK) or IGASORP (Hiden, UK). 10 to 50 mg of compound was transferred into the DVS and the weight change recorded with respect to a varying atmospheric humidity at 25° C. using the following parameters:
Drying at 40° C. until dm/dt<±0.002%/min
Min time: 30 min, Max time: 120 min (for IGASORP)
Characterize the sample after the DVS experiment by XRPD

[2] = molecular target: T1, human URAT1 uptake transporter (Homo sapiens, UniProt Q96S37); test: In vitro interaction study with the human URAT1 uptake transporter (uric acid uptake in MDCKII cells); assay type: cell-based; settings: MDCK-II, at a concentration of 10 μM, read-out: Inhibition of URAT1 mediated uric acid accumulation
T1 construct: expressed in transfected cells
T1 sequence (Q96S37 1-553): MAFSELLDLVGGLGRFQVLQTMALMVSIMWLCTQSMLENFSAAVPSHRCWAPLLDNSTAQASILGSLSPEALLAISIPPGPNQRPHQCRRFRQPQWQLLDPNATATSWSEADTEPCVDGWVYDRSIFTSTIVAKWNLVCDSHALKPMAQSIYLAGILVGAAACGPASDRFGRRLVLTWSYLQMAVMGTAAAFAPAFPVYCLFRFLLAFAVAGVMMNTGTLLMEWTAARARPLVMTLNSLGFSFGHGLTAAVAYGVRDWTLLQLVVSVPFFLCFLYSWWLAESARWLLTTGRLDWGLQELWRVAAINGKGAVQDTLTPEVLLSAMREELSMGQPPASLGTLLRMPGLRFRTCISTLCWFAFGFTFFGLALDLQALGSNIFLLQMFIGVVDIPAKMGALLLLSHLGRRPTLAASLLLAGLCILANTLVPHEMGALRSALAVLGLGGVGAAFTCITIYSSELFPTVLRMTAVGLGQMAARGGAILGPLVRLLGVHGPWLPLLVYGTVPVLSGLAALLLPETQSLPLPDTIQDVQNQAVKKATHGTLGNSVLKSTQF
Method: Uptake experiments were performed using MDCKII cells stably expressing the human URAT1 uptake transporter. Cells were cultured at 37±1° C. in an atmosphere of 95:5 air:CO2 and were plated onto standard 96-well tissue culture plates at the cell number described in Table 5.
Radiolabeled probe substrate transport was determined by measuring an aliquot (35 μL) from each well for liquid scintillation counting.

[3] = cited from earlier work
CYP2C9 = CYP2C9 (Homo sapiens, UniProt P11712); test: CYP2C9 metabolic pathway / metabolite formation; assay type: in vitro ADME
[4] = Stability in human microsomes; assay type: in vitro ADME

CYP2C9, sequence (P11712 whole entry): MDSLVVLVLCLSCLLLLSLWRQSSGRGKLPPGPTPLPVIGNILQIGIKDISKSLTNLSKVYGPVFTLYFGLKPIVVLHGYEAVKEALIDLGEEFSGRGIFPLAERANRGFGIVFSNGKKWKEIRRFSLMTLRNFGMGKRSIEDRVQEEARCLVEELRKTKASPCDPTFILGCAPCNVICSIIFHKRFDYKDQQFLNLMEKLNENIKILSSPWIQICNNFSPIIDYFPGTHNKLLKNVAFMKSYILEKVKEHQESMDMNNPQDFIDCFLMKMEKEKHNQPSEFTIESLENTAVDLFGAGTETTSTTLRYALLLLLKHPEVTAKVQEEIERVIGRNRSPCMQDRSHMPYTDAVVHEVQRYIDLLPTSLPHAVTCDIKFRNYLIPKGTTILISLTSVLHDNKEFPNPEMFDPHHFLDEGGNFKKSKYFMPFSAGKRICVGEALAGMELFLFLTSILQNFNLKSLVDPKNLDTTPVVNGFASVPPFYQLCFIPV

## [2H]c1c([2H])c([2H])c2c(C(=O)c3cc(Br)c(O)c(Br)c3)c(C(C)O)oc2c1[2H] (centres unmarked) [Form 1, (3,5-dibromo-4-hydroxyphenyl)(2-(1-hydroxyethyl)benzofuran-3-yl-4,5,6,7-d4)methanone]
[1]; DVS, 25° C.
  RH at which the dehydrated form converted to hydrated form: ≥ 20%

## CCc1oc2ccccc2c1C(=O)c1cc(Br)c(O)c(Br)c1 [Benzbromarone]
[2]
  inhibition at 10 µM: 98%
[3]; chronic therapy
  Serum uric acid (sUA) level reached: < 6 mg/dL
[3]; in certain patients
  Hepatotoxicity: associated with hepatotoxicity

## [2H]c1c([2H])c([2H])c2c(C(=O)c3cc(Br)c(O)c(Br)c3)c(C(C)O)oc2c1[2H] (centres unmarked) [Form 3, (3,5-dibromo-4-hydroxyphenyl)(2-(1-hydroxyethyl)benzofuran-3-yl-4,5,6,7-d4)methanone]
[1]; DVS, 25° C.
  Hygroscopicity: non-hygroscopic
[1]
  Post-GVS analysis by XRPD (change of form): no change
[1]; 25° C.
  Moisture uptake (DVS): 0.04%

## [2H]c1c([2H])c([2H])c2c(C(=O)c3cc(Br)c(O)c(Br)c3)c(C(C)O)oc2c1[2H] (centres unmarked) [Form 2, (3,5-dibromo-4-hydroxyphenyl)(2-(1-hydroxyethyl)benzofuran-3-yl-4,5,6,7-d4)methanone]
[1]; DVS, 25° C.
  Hygroscopicity: non-hygroscopic
[1]
  Post-GVS analysis by XRPD (change of form): no change
[1]; 25° C.
  Moisture uptake (DVS): 0.08%

## [2H]c1c([2H])c([2H])c2c(C(=O)c3cc(Br)c(O)c(Br)c3)c(C(C)O)oc2c1[2H] (centres unmarked) [Compound 1, (3,5-dibromo-4-hydroxyphenyl)(2-(1-hydroxyethyl)benzofuran-3-yl-4,5,6,7-d4)methanone]
CYP2C9
  Formation of 6-OH benzbromarone and 5,6-di-OH benzbromarone metabolites: not formed
CYP2C9; compared with benzbromarone
  CYP2C9 metabolic pathway: significantly reduced
[2]
  inhibition at 10 µM: 100%
[4]
  Stability in human microsomes compared with benzbromarone: more stable than benzbromarone in human microsomes
